Molecular target: T1, COX-2 (cyclooxygenase-2) (Homo sapiens, UniProt P35354)
T1 sequence (P35354 18-604): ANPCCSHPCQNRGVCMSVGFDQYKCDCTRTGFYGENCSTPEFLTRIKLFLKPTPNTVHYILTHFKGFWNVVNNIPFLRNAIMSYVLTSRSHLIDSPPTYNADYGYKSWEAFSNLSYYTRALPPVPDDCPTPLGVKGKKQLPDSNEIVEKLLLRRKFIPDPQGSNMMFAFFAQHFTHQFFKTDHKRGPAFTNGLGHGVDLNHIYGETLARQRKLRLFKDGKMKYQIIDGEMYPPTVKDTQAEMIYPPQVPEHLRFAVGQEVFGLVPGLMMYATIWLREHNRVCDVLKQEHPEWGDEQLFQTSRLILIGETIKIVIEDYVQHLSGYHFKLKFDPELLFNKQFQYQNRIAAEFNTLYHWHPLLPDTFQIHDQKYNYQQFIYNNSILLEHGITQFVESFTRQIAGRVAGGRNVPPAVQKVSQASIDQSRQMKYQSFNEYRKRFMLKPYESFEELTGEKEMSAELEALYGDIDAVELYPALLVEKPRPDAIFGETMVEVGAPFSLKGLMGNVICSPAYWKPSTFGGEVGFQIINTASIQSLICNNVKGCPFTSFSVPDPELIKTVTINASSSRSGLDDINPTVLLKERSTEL
Assay type: biochemical
Conditions: read-out: Ki

Compound	KI (inactivation) [µM]
Cc1ccc(-c2cc(C[Se]C#N)nn2-c2ccc(S(N)(=O)=O)cc2)cc1 [selenocoxib-2, 4-(3-Selenocyanatomethyl-5-p-tolyl-1-yl)-benzenesulfonamide]	0.73
C[Se]Cc1ccc(-c2cc(C(F)(F)F)nn2-c2ccc(S(N)(=O)=O)cc2)cc1 [selenocoxib-3, 4-[5-(4-Methylseleanylmethyl-phenyl)-3-trifluoromethyl-pyrazol-1-yl]-benezenesulfonamide]	2.4

Source: publication PMC3004533 (Chemico-biological interactions, 2010)
